Measurements as given in US9387221B2, “SDF-1 binding nucleic acids and the use thereof in cancer treatment” (NOXXON Pharma AG, priority 2010, dated 2016).

system: biotinylated human D-SDF-1; assay: Competitive pull-down binding assay; settings: aptamer level; reference 192-A10-001
Description: In order to compare different D-SDF-1 binding aptamers, a competitive ranking assay was performed. For this purpose the most affine aptamer available was radioactively labeled (see above) and served as reference. […] An excess of de- and renatured non-labeled D-RNA aptamer variants was added to different concentrations (e.g. 2, 10, and 50 nM) with the labeled reference aptamer to parallel binding reactions. The aptamers to be tested competed with the reference aptamer for target binding, thus decreasing the binding signal in dependence of their binding characteristics.

Sequence | binding affinity in competitive pull-down binding assay vs. 192-A10-001
AGCGUGAAAGUAACACGUAAAAUGAAAGGUAACCACGCU (Made as D-RNA aptamer and L-RNA Spiegelmer, tested form not given here, further chemistry not given here) [191-A6] | Weaker binding affinity
AGCGUGAAGGGGUUAGGGCUCGAAGUCGGCUGACACGCU (Made as D-RNA aptamer and L-RNA Spiegelmer, tested form not given here, further chemistry not given here) [191-A5] | Much weaker binding affinity
AGCGUGGUGUGAUCUAGAUGUAAUGGCUGAUCCUAGUCAGGUGCGCU (chemistry not fully specified) [193-F2-001] | superior binding
AGCGUGGUGUGAUCUAGAUGUAGUGGCUGAUCCUAGUCAGGUACGCU (chemistry not fully specified) [193-C2-001] | superior binding
CGUGCGCUUGAGAUAGGGGUUAGGGCUUAAAGUCGGCUGAUUCUCACG (Made as D-RNA aptamer and L-RNA Spiegelmer, tested form not given here, further chemistry not given here) [190-A3-001] | weaker binding affinities

same assay, conditions: reference 191-D5-001

Sequence | binding affinity in competitive pull-down binding assay vs. 191-D5-001
CGGGCGAGGUUAGGGCUAGAAGUCGGUCGACCG (Made as D-RNA aptamer and L-RNA Spiegelmer, tested form not given here, further chemistry not given here) [191-D5-004] | reduced binding affinity

same assay, conditions: reference 191-D5-007

Sequence | binding affinity in competitive pull-down binding assay vs. 191-D5-007
CCCGGGUUAGGGCUAGAAGUCGGCGGG (chemistry not fully specified) [191-D5-029] | reduced binding affinity
CCGCGGUUAGGGCUAGAAGUCGGGCGG (chemistry not given here) [191-D5-017] | reduced binding affinity
CGCCGGGGUUAGGGCUAGAAGUCGGCCGGCG (chemistry not fully specified) [197-B2-006-31b] | the same as shown for 191-D5-007 and 197-B2-006
CGGCGGGUUAGGGCUAGAAGUCGGCGCCG (chemistry not fully specified) [191-D5-024-29a] | identical binding affinity to SDF-1 as 191-D5-007

same assay, conditions: vs. 192-A10-001 and 192-A10-008

Sequence | binding affinity of derivatives of 192-A10-001 in competitive pull-down binding assay
AAAGCAACAUGUCAAUGAAAGGUAGC (chemistry not fully specified) [192-A10-007] | reduced binding affinity
CCCCAAAGCAACAUGUCAAUGAAAGGUAGCGGGG (aptamer; chemistry not given here) [192-A10-023] | weaker, much weaker or very much weaker binding affinity
CGCGAAAGCAACAUGUCAAUGAAAGGUAGCCGUG (aptamer; chemistry not given here) [192-A10-019] | weaker, much weaker or very much weaker binding affinity
CGUGAAAGCAACAUGUCAAUGAAAGGUAGCCGCG (aptamer; chemistry not given here) [192-A10-016] | weaker, much weaker or very much weaker binding affinity
CUGUGAAAGCAACAUGUCAAUGAAAGGUAGCCGCAG (aptamer; Made as D-RNA aptamer and L-RNA Spiegelmer, tested form not given here, further chemistry not given here) [192-A10-002] | without reduction of binding affinity
GAAAGCAACAUGUCAAUGAAAGGUAGCC (chemistry not fully specified) [192-A10-006] | reduced binding affinity

same assay, conditions: vs. 193-G2-001 and 193-G2-012

Sequence | binding affinity of derivatives of 193-G2-001 and 193-C2-001 in competitive pull-down binding assay
CGUGGUGUGAUCUAGAUGUAGUGGCUGAUCCUAGUCAGGUACG (chemistry not fully specified) [193-C2-003] | reduced binding affinity
